Publication PMC9729826, “Hypoaminoacidemia underpins glucagon-mediated energy expenditure and weight loss” (Cell Reports Medicine, 2022)
Starred links: 1 amine or outer side, 2 acyl side, 3 side chain; linkers in the order of their positions; H or OH if unused. Non-standard residues stand in square brackets, D forms with d. Residues, ends and D or L forms follow the SMILES beside them. Groups on a side chain read outwards from the residue. *: point of attachment. C18 diacid = O=C(O)CCCCCCCCCCCCCCCCC(=O)*; γGlu = O=C(O)[C@H](CCC(=O)[*:2])N[*:1]; Aib = CC(C)(N)C(=O)O

What was measured:
Type in all cases: in vivo, mouse
[1] = test system: lean C57BL/6 mice; assay: Blood glucose after a single dose in lean mice; conditions: 10 nmol/kg single intraperitoneal injection, up to 2 h, n = 6/group
Procedure: (§1) Twelve weight-matched 12-week-old lean C57BL/6 mice were fasted for 2 h prior to a single intraperitoneal injection of 10 nmol/kg dose of G108 diluted in sterile HPLC water (pH > 7), or vehicle control alone. Tail venesection was performed at baseline, 15, 30, 60 and 120 min and blood glucose measured using a handheld GlucoRx meter. For hepatic carbohydrate and amino acid metabolism gene expression analysis, weight-matched 12-week-old lean C57BL/6 mice were subcutaneously administered with 20 nmol/kg G108 diluted in sterile HPLC water (pH > 7), or vehicle control via subcutaneous injection at 9 am (N = 8). All animals had ad libitum access to RM1 diet and water. Liver tissue was dissected at 24 h and stored at −80°C prior to hepatic gene expression analysis.

[2] = test system: diet-induced obese (DIO) C57BL/6 mice; assay: Chronic low-dose (7.5 nmol/kg) G108 study in DIO mice on SP or HP diet; conditions: 7.5 nmol/kg s.c. daily
From the text: Lean 10-week-old C57BL/6 mice (N = 27) were provided ad libitum a 60 kcal% high fat diet (diet D12492, Table S2) for 12 weeks prior to the start of the study. The cohort of mice were individually housed and divided into three treatment groups, based on treatment and diet allocation: Vehicle/High fat, Standard protein diet (SP) (N = 9), 7.5 nmol/kg G108/SP diet (N = 9) and 7.5 nmol/kg G108/High fat, High protein diet (HP) (N = 9). The high fat, standard protein diet (SP diet) (D08091803) and high fat, high protein diet (HP diet) (D08091801) are detailed in Table S2. All mice had ad libitum access to water and their allocated diets. Mice were subcutaneously administered with their respective treatments at 9 am each day for 27 days. Food intake, water intake and body weight were measured using the same weighing scale each morning prior to vehicle or G108 administration. EchoMRI was carried out at baseline, day 14 and day 25. Tail venesection was carried out on day 13 of the study immediately pre-treatment. 40–50 μL of blood was collected and immediately transferred on ice, centrifuged at 2800 × g for 10 min prior to analysis for total and individual plasma amino acids. A glucose tolerance test was carried out on day 15 of the study following a 5 h fast as described below. Forelimb grip strength testing was performed at baseline and day 25 of the study. After 20 days, all groups were placed into metabolic cages, single housed for 72 h, as described below. After 72 h, all groups were removed from the metabolic cages and returned to their home cages. Following a 4 h fast on day 27 all mice were culled, with the following tissues dissected and snap frozen in liquid nitrogen prior to storage at −80°C: gastrocnemius, quadriceps, brown adipose tissue (BAT) and liver. Terminal blood was also collected and transferred on ice immediately for centrifugation as previously described and storage at −80°C.
Food intake was measured daily using a dedicated weighing scale and topped up accordingly. Body weight was recorded at 9 am daily or every 48 h using the same weighing scale. Body composition was measured using an EchoMRI analyser at various timepoints during chronic studies. Body composition measurements were taken on the same time of day to reduce intra-animal variability. Animals were placed in a transparent cylindrical Perspex tube and both ends secured with Perspex clips. The tubes containing the animal was then carefully placed into the MRI machine (EchoMRI −100H analyser, EchoMRI). Each scan lasted approximately 90 s where lean mass and fat mass were recorded in grams. Following the scan, the mice were removed from the Perspex tube and returned to their respective cages.
For glucose tolerance tests, following a 5 h fast and administration of peptide or vehicle treatment, mice were administered with glucose by intraperitoneal injection at a dose of 2 g/kg body weight. Tail vein blood samples were taken at baseline, 20, 40, 60 and 90 min and glucose measured (mmol/L) using a handheld GlucoRx monitor (GlucoRx, UK).
To measure energy expenditure, DIO mice were placed into a Comprehensive Laboratory Animal Monitoring System (CLAMS, Columbus instruments, Columbus, US). Measurement of oxygen consumption and carbon dioxide production was taken at 20 min intervals. Food intake was also measured electronically without the need to remove food. Each cohort of mice were placed into the CLAMS system with daily weighing of body weight prior to administration of the allocated treatment at 9 am. Following administration of treatment, mice were placed back into the metabolic cages with ad libitum access to their allocated diet. For studies with the low amino acid (LAA) diet in metabolic cages, animals were not removed from the metabolic cages until the end of the experiment and had ad libitum access to either standard protein or low amino acid diets. Feed efficiency was calculated as mg body weight change per kJ consumed. […]

[3] = test system: lean C57BL/6 mice; assay: Hepatic gene expression 24 h after a single dose in lean mice; conditions: 20 nmol/kg single s.c. dose, liver at 24 h, qPCR, n = 4/group
Procedure: as §1
RNA was extracted from liver, muscle and BAT tissue using 1 mL TRIzol added to samples prior to homogenisation within a mechanical homogeniser for 2–3 min. Chloroform was added to each individual sample prior to gentle shaking and centrifugation at 16000 × g for 15 min. […] RNA was quantified in addition to quality assessed using a NanoDrop spectrophotometer and 1 μg of RNA was then used for the synthesis of cDNA using the iScript cDNA synthesis Kit (Bio-Rad). Quantitative polymerase chain reaction (qPCR) was then undertaken using the SYBR-Green method using KiCqStart SYBR Green primers (Merck).

CC[C@H](C)[C@H](NC(=O)[C@H](Cc1ccccc1)NC(=O)[C@H](CCC(=O)O)NC(=O)[C@H](CCC(N)=O)NC(=O)[C@H](C)NC(=O)[C@H](CCCNC(=N)N)NC(=O)[C@H](CCCCN)NC(=O)[C@H](C)NC(=O)[C@H](CC(=O)O)NC(=O)[C@H](CC(C)C)NC(=O)[C@H](Cc1ccc(O)cc1)NC(=O)[C@H](CCCNC(=N)N)NC(=O)[C@H](CO)NC(=O)[C@H](Cc1ccc(O)cc1)NC(=O)[C@H](CC(=O)O)NC(=O)[C@H](CO)NC(=O)[C@@H](NC(=O)[C@H](Cc1ccccc1)NC(=O)[C@@H](NC(=O)CNC(=O)[C@H](Cc1c[nH]cn1)NC(=O)C(C)(C)NC(=O)[C@@H](N)Cc1c[nH]cn1)[C@@H](C)O)[C@@H](C)O)C(=O)N[C@@H](CCC(=O)O)C(=O)N[C@@H](Cc1c[nH]c2ccccc12)C(=O)N[C@@H](CC(C)C)C(=O)N[C@@H](CC(C)C)C(=O)N[C@@H](CCC(N)=O)C(=O)N[C@@H](CO)C(=O)N[C@@H](Cc1c[nH]cn1)C(=O)N[C@@H](Cc1c[nH]cn1)C(=O)N[C@@H](CCC(N)=O)C(=O)N[C@@H](Cc1c[nH]cn1)C(=O)N[C@@H](Cc1c[nH]cn1)C(=O)N1CCC[C@H]1C(=O)N[C@@H](CO)C(=O)N1CCC[C@H]1C(=O)N1CCC[C@H]1C(=O)N1CCC[C@H]1C(=O)N[C@@H](CCCCNC(=O)[C@H](CC(N)=O)NC(=O)CC[C@H](NC(=O)CCCCCCCCCCCCCCCCC(=O)O)C(=O)O)C(N)=O [Peptide G108] (H-H[Aib]HGTFTSDYSRYLDAKRAQEFIEWLLQSHHQHHPSPPPK([Asn-γGlu-C18 diacid])-NH2; N-terminus and C-terminus assumed)
blood glucose after a single dose [1]: acute increase in blood glucose
food intake ([2]; 27 days): did not affect food intake
body weight on high protein (HP) diet ([2]; 27 days, HP diet (40 kcal% protein) versus SP diet, n = 9/group): sufficient to prevent chronic G108-mediated weight loss
lean mass and grip strength on HP diet ([2]; HP diet, less pronounced over the course of the study): blunted the reduction in lean mass and grip strength
energy expenditure (EE) in metabolic cages ([2]; after 20 days, CLAMS, SP and HP diets, n = 7-8/group): increased EE on a standard protein (SP), but not HP, diet
individual plasma amino acids ([2]; day 13, SP diet, GC/MS, n = 5/group): reduced the plasma abundance of most amino acids
plasma total cholesterol ([2]; day 14, both SP and HP diets, n = 9/group): improvement in plasma cholesterol
plasma total triglyceride ([2]; day 14, n = 9/group): no change in plasma triglycerides
glucose tolerance (intraperitoneal glucose tolerance test, 2 g/kg) ([2]; day 15, SP and HP diets, n = 9/group): remarkably efficient at improving glucose tolerance
fat mass on standard protein (SP) diet ([2]; days 14 and 25, SP diet, prevented by HP diet): marked reduction in fat mass
induction of hepatic amino acid catabolic pathways on HP diet ([2]; liver qPCR, n = 5-6/group): not prevented by the HP diet
hepatic lipid content (oil red O staining) ([2]; terminal (day 27), both SP and HP diets): highly effective at clearing liver fat
expression of hepatic amino acid catabolism (urea cycle) genes [3]: increased the expression of a number of genes involved in amino acid catabolism
expression of hepatic gluconeogenic enzymes [3]: increased the expression of hepatic gluconeogenic enzymes
